Source: patent US20100179093A1, “Neoropeptide-2-Receptor (Y-2R) Agonists” (priority 2008, published 2010)

Key:
Format in all cases: cell-based
[1] = molecular target: Y4R (Homo sapiens, UniProt P50391); experiment: CaFlux Assay (FLIPR), Y4R
[2] = molecular target: T1, hNPY2R (Homo sapiens, UniProt P49146); experiment: CaFlux Assay (FLIPR), Y2R; parameters: expressed in transfected cells; host or cells: HEK-293 stably expressing G protein chimera Gaqi9
T1 sequence (P49146 1-381): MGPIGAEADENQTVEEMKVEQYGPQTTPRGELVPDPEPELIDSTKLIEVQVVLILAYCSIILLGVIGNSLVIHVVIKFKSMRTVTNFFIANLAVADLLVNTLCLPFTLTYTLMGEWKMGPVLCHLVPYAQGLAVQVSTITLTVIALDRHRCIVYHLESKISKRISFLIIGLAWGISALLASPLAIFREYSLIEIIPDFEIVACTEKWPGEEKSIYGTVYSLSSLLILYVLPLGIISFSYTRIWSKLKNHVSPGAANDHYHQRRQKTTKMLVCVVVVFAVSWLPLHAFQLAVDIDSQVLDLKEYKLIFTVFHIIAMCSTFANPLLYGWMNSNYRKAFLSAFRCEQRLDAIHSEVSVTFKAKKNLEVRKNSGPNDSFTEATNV
Method: Hek-293 cells were stably transfected with the G protein chimera Gaqi9 and the hygromycin-B resistance gene were further transfected with the human NPY2 receptor and G418 antibiotic selection. Following selection in both hygromycin-B and G418, individual clones were assayed for their response to PYY. The transfected cells were cultured in DMEM medium supplemented with 10% fetal bovine serum, 50 μg/mL hygromycin-B 2 mM glutamine, 100 U/mL penicillin, 100 μg/mL streptomycin and 250 μg/mL G418. Cells are harvested with trypsin-EDTA and counted using ViaCount reagent. The cell suspension volume is adjusted to 4.8×10^5 cells/mL with complete growth media. Aliquots of 25 μL are dispensed into 384 well Poly-D Lysine coated black/clear microplates (Falcon) and the microplates were placed in a 37° C. CO2 incubator overnight. Loading Buffer (Calcium-3 Assay Kit, Molecular Devices) was prepared by dissolving the contents of one vial (Express Kit) into 1000 mL Hank's Balanced Salt Solution containing 20 mM HEPES and 5 mM probenecid. Aliquots of 25 μL of diluted dye were dispensed into the cell plates and the plates are then incubated for 1 hour at 37° C. During the incubation, test compounds were prepared at 3.5× the desired concentration in HBSS (20 mM HEPES)/0.05% BSA/1% DMSO and transferred to a 384 well plate for use on FLIPR. After incubation, both the cell and compound plates were brought to the FLIPR and 20 μL of the diluted compounds were transferred to the cell plates by the FLIPR. During the assay, fluorescence readings were taken simultaneously from all 384 wells of the cell plate every 1.5 seconds. Five readings were taken to establish a stable baseline, and then 20 μL of sample was rapidly (30 μL/sec) and simultaneously added to each well of the cell plate. The fluorescence was continuously monitored before, during and after sample addition for a total elapsed time of 100 seconds. Responses (increase in peak fluorescence) in each well following addition were determined. The initial fluorescence reading from each well, prior to ligand stimulation, was used as a zero baseline value for the data from that well. The responses are expressed as % of maximal response of the positive control.

[3] = molecular target: T1, hNPY2R; experiment: cAMP Agonist Assay, HEK293/hNPY2R cells; parameters: expressed in transfected cells; host or cells: HEK293/hNPY2R (G418 selection)
[4] = molecular target: T2, Y1R (Homo sapiens, UniProt P25929); experiment: CaFlux Assay (FLIPR), Y1R
T2 sequence (P25929 1-384): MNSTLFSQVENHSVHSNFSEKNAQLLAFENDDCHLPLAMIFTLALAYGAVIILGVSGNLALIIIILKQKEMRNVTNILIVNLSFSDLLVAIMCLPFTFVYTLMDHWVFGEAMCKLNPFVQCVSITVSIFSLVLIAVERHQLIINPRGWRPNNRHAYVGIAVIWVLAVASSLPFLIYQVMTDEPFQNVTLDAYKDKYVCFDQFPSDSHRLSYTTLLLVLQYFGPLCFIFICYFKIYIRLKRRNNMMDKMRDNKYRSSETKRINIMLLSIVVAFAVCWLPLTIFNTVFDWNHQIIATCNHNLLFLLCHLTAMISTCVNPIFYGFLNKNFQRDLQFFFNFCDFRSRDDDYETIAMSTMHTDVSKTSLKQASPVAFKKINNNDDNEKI

[5] = molecular target: T3, Y5R (Homo sapiens, UniProt Q15761); experiment: CaFlux Assay (FLIPR), Y5R; settings: for Emax: read-out: Y5R FLIPR, percentage in parentheses under the EC50;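 for Emax: percent of the maximal response of the positive control agonist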
T3 sequence (Q15761 1-445): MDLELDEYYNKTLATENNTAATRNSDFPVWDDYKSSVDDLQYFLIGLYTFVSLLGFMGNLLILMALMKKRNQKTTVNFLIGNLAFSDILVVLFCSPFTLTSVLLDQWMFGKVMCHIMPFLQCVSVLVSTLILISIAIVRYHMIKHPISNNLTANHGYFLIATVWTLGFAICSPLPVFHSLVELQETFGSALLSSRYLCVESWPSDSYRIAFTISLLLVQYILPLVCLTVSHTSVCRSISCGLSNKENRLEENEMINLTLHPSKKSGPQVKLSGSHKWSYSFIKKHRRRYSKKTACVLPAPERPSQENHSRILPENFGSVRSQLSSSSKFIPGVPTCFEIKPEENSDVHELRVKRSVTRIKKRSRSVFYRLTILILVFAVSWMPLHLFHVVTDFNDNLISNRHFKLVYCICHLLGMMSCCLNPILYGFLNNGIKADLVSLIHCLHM

Sequence of Y4R (P50391 whole entry): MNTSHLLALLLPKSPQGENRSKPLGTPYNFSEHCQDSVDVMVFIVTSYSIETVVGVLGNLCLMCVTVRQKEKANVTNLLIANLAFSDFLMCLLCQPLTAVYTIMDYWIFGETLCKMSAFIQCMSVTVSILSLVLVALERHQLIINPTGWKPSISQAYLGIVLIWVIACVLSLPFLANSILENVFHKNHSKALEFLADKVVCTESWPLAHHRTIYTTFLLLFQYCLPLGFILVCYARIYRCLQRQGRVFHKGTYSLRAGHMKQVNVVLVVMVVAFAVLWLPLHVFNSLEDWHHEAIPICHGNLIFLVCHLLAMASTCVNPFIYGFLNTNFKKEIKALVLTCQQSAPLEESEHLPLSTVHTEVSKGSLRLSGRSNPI

Structure (SMILES) | EC50 [1] [µM] | EC50 [2] [nM] | EC50 [3] [nM] | EC50 [4] [µM] | EC50 [5] [nM] | Emax [5] [%]
CCCCCCCCCCCCCCCCCCCC(=O)N[C@@H](CO)C(=O)N[C@@H](CO)C(=O)NCCCC[C@H](NC(=O)[C@@H](N)[C@@H](C)CC)C(=O)N1CCN(c2ccc3ncn(CC(=O)N[C@@H](CCCNC(=N)N)C(=O)N[C@@H](Cc4c[nH]cn4)C(=O)N[C@@H](Cc4ccc(O)cc4)C(=O)N[C@@H](CC(C)C)C(=O)N[C@@H](CC(N)=O)C(=O)N[C@@H](Cc4c[nH]c5ccccc45)C(=O)N[C@H](C(=O)N[C@H](C(=O)N[C@@H](CCCNC(=N)N)C(=O)N[C@@H](CCC(N)=O)C(=O)N(C)[C@@H](CCCNC(=N)N)C(=O)N[C@@H](Cc4ccc(O)cc4)C(N)=O)[C@@H](C)O)C(C)C)c(=O)c3c2)CC1 [Example 41] | > 5 | 0.165 | 0.11 | > 5 | 1830 | 37
CCCC(=O)NCCCC[C@H](NC(=O)[C@@H](NC(C)=O)[C@@H](C)CC)C(=O)N1CCN(c2ccc3ncn(CC(=O)N[C@@H](CCCNC(=N)N)C(=O)N[C@@H](Cc4c[nH]cn4)C(=O)N[C@@H](Cc4ccc(O)cc4)C(=O)N[C@@H](CC(C)C)C(=O)N[C@@H](CC(N)=O)C(=O)N[C@@H](Cc4c[nH]c5ccccc45)C(=O)N[C@H](C(=O)N[C@H](C(=O)N[C@@H](CCCNC(=N)N)C(=O)N[C@@H](CCC(N)=O)C(=O)N(C)[C@@H](CCCNC(=N)N)C(=O)N[C@@H](Cc4ccc(O)cc4)C(N)=O)[C@@H](C)O)C(C)C)c(=O)c3c2)CC1 [Example 5] | 31.6 | 0.18 | 0.39 | > 5 | 24900 | 
CCCCCCCCCCCCCCCC(=O)N[C@H](C(=O)N[C@@H](CCCCN)C(=O)N1CCN(c2ccc3ncn(CC(=O)N[C@@H](CCCNC(=N)N)C(=O)N[C@@H](Cc4c[nH]cn4)C(=O)N[C@@H](Cc4ccc(O)cc4)C(=O)N[C@@H](CC(C)C)C(=O)N[C@@H](CC(N)=O)C(=O)N[C@@H](Cc4c[nH]c5ccccc45)C(=O)N[C@H](C(=O)N[C@H](C(=O)N[C@@H](CCCNC(=N)N)C(=O)N[C@@H](CCC(N)=O)C(=O)N(C)[C@@H](CCCNC(=N)N)C(=O)N[C@@H](Cc4ccc(O)cc4)C(N)=O)[C@@H](C)O)C(C)C)c(=O)c3c2)CC1)[C@@H](C)CC [Example 15] | 1.36 | 1.03 | 0.97 | > 5 | > 5000 | 
CCCCCCCCCCCCCCCC(=O)NCCOCCOCCOCCOCCC(=O)NCCCC[C@H](NC(=O)[C@@H](N)[C@@H](C)CC)C(=O)N1CCN(c2ccc3ncn(CC(=O)N[C@@H](CCCNC(=N)N)C(=O)N[C@@H](Cc4c[nH]cn4)C(=O)N[C@@H](Cc4ccc(O)cc4)C(=O)N[C@@H](CC(C)C)C(=O)N[C@@H](CC(N)=O)C(=O)N[C@@H](Cc4c[nH]c5ccccc45)C(=O)N[C@H](C(=O)N[C@H](C(=O)N[C@@H](CCCNC(=N)N)C(=O)N[C@@H](CCC(N)=O)C(=O)N(C)[C@@H](CCCNC(=N)N)C(=O)N[C@@H](Cc4ccc(O)cc4)C(N)=O)[C@@H](C)O)C(C)C)c(=O)c3c2)CC1 [Example 32] | > 5 | 0.26 | 0.19 | > 5 | 973 | 28
CCCCCCCCCCCCCCCC(=O)NCCC(=O)NCCCC[C@H](NC(=O)[C@@H](N)[C@@H](C)CC)C(=O)N1CCN(c2ccc3ncn(CC(=O)N[C@@H](CCCNC(=N)N)C(=O)N[C@@H](Cc4c[nH]cn4)C(=O)N[C@@H](Cc4ccc(O)cc4)C(=O)N[C@@H](CC(C)C)C(=O)N[C@@H](CC(N)=O)C(=O)N[C@@H](Cc4c[nH]c5ccccc45)C(=O)N[C@H](C(=O)N[C@H](C(=O)N[C@@H](CCCNC(=N)N)C(=O)N[C@@H](CCC(N)=O)C(=O)N(C)[C@@H](CCCNC(=N)N)C(=O)N[C@@H](Cc4ccc(O)cc4)C(N)=O)[C@@H](C)O)C(C)C)c(=O)c3c2)CC1 [Example 20] | > 5 | 0.015 | 0.26 | > 5 | 1880 | 
CCCCCCCCCCCCCCCC(=O)N[C@H](C(=O)N[C@H](C(=O)NCCCC[C@H](NC(=O)[C@@H](N)[C@@H](C)CC)C(=O)N1CCN(c2ccc3ncn(CC(=O)N[C@@H](CCCNC(=N)N)C(=O)N[C@@H](Cc4c[nH]cn4)C(=O)N[C@@H](Cc4ccc(O)cc4)C(=O)N[C@@H](CC(C)C)C(=O)N[C@@H](CC(N)=O)C(=O)N[C@@H](Cc4c[nH]c5ccccc45)C(=O)N[C@H](C(=O)N[C@H](C(=O)N[C@@H](CCCNC(=N)N)C(=O)N[C@@H](CCC(N)=O)C(=O)N(C)[C@@H](CCCNC(=N)N)C(=O)N[C@@H](Cc4ccc(O)cc4)C(N)=O)[C@@H](C)O)C(C)C)c(=O)c3c2)CC1)[C@@H](C)O)[C@@H](C)O [Example 42] | > 5 | 0.018 | 0.14 | > 5 | 193 | 46
CCCCCCCCCCCC(=O)N[C@@H](CCC(=O)O)C(=O)NCCCC[C@H](NC(=O)[C@@H](N)[C@@H](C)CC)C(=O)N1CCN(c2ccc3ncn(CC(=O)N[C@@H](CCCNC(=N)N)C(=O)N[C@@H](Cc4c[nH]cn4)C(=O)N[C@@H](Cc4ccc(O)cc4)C(=O)N[C@@H](CC(C)C)C(=O)N[C@@H](CC(N)=O)C(=O)N[C@@H](Cc4c[nH]c5ccccc45)C(=O)N[C@H](C(=O)N[C@H](C(=O)N[C@@H](CCCNC(=N)N)C(=O)N[C@@H](CCC(N)=O)C(=O)N(C)[C@@H](CCCNC(=N)N)C(=O)N[C@@H](Cc4ccc(O)cc4)C(N)=O)[C@@H](C)O)C(C)C)c(=O)c3c2)CC1 [Example 11] | 2.43 | 0.026 | 3.6 | > 5 | 3550 | 
CCCCCCCCCCCCCCCC(=O)NCCC(=O)N[C@@H](CCC(=O)NCCCC[C@H](NC(=O)[C@@H](N)[C@@H](C)CC)C(=O)N1CCN(c2ccc3ncn(CC(=O)N[C@@H](CCCNC(=N)N)C(=O)N[C@@H](Cc4c[nH]cn4)C(=O)N[C@@H](Cc4ccc(O)cc4)C(=O)N[C@@H](CC(C)C)C(=O)N[C@@H](CC(N)=O)C(=O)N[C@@H](Cc4c[nH]c5ccccc45)C(=O)N[C@H](C(=O)N[C@H](C(=O)N[C@@H](CCCNC(=N)N)C(=O)N[C@@H](CCC(N)=O)C(=O)N(C)[C@@H](CCCNC(=N)N)C(=O)N[C@@H](Cc4ccc(O)cc4)C(N)=O)[C@@H](C)O)C(C)C)c(=O)c3c2)CC1)C(=O)O [Example 26] | > 5 | 0.045 | 0.15 | > 5 | 129 | 70
CCCCCCCCCCCCCCCC(=O)NCCCC[C@H](NC(=O)[C@@H](NC(C)=O)[C@@H](C)CC)C(=O)N1CCN(c2ccc3ncn(CC(=O)N[C@@H](CCCNC(=N)N)C(=O)N[C@@H](Cc4c[nH]cn4)C(=O)N[C@@H](Cc4ccc(O)cc4)C(=O)N[C@@H](CC(C)C)C(=O)N[C@@H](CC(N)=O)C(=O)N[C@@H](Cc4c[nH]c5ccccc45)C(=O)N[C@H](C(=O)N[C@H](C(=O)N[C@@H](CCCNC(=N)N)C(=O)N[C@@H](CCC(N)=O)C(=O)N(C)[C@@H](CCCNC(=N)N)C(=O)N[C@@H](Cc4ccc(O)cc4)C(N)=O)[C@@H](C)O)C(C)C)c(=O)c3c2)CC1 [Example 13] | 32.2 | 1.31 | 1.2 | 29.2 | 9380 | 
CCCCCCCCCCCCCCCC(=O)NCCC(=O)N[C@@H](CCC(=O)O)C(=O)NCCCC[C@H](NC(=O)[C@@H](N)[C@@H](C)CC)C(=O)N1CCN(c2ccc3ncn(CC(=O)N[C@@H](CCCNC(=N)N)C(=O)N[C@@H](Cc4c[nH]cn4)C(=O)N[C@@H](Cc4ccc(O)cc4)C(=O)N[C@@H](CC(C)C)C(=O)N[C@@H](CC(N)=O)C(=O)N[C@@H](Cc4c[nH]c5ccccc45)C(=O)N[C@H](C(=O)N[C@H](C(=O)N[C@@H](CCCNC(=N)N)C(=O)N[C@@H](CCC(N)=O)C(=O)N(C)[C@@H](CCCNC(=N)N)C(=O)N[C@@H](Cc4ccc(O)cc4)C(N)=O)[C@@H](C)O)C(C)C)c(=O)c3c2)CC1 [Example 22] |  |  |  |  |  | 70
